The values below come from patent publication US10988477B2 (Merck Patent GmbH, priority 2018, dated 2021).

Sequence of GCN2 kinase (Q9P2K8 whole entry): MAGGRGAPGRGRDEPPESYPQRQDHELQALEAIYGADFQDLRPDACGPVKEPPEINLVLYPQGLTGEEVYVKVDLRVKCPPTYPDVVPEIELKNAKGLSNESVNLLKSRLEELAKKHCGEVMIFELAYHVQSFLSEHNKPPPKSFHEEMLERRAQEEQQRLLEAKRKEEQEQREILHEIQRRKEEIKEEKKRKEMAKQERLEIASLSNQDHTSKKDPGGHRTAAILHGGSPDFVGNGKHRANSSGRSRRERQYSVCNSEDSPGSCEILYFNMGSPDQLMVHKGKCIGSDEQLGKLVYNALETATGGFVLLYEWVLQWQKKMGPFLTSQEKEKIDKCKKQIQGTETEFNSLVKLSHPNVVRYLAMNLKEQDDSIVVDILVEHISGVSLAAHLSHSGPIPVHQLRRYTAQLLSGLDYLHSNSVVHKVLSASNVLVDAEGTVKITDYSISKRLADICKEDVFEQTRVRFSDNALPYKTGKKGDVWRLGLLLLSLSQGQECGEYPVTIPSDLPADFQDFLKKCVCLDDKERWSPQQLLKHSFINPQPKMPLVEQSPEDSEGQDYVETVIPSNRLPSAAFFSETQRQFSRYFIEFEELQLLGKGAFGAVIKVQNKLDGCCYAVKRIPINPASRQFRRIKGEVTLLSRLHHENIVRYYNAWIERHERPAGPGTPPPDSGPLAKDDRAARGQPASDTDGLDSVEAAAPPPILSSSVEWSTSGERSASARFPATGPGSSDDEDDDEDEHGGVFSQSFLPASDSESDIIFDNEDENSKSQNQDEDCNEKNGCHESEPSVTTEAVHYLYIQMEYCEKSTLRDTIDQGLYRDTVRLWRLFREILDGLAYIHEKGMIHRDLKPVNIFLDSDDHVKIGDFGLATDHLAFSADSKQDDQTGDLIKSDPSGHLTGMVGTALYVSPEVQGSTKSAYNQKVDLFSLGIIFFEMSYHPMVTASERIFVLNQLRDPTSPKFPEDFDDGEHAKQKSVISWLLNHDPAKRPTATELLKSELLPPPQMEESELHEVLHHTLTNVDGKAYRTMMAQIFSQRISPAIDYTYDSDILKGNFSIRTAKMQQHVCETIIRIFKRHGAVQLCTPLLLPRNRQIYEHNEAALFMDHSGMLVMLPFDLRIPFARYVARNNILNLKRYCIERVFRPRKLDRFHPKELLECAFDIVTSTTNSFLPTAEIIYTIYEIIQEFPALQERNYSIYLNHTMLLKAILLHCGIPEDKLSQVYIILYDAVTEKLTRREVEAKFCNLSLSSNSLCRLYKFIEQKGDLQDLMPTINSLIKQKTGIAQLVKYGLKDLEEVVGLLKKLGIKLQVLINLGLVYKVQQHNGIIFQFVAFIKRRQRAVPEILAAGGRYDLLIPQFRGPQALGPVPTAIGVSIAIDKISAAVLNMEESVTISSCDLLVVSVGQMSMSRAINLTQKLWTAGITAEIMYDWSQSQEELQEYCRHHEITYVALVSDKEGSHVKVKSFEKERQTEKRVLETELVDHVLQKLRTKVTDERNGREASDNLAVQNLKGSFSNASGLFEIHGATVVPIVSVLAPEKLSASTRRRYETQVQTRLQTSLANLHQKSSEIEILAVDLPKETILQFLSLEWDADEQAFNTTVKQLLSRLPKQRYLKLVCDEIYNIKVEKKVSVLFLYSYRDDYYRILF

The test has as its target GCN2 kinase (Homo sapiens, UniProt Q9P2K8). The test is described as follows: GCN2 enzyme inhibition assay (Transcreener ADP2 fluorescence polarization). The class given is biochemical. The following applies: Enzyme activity for compounds of Formula IV; Ki(app), 280 μM ATP, 25° C. In a few lines:
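Run at 25 °C in 25 mM Tris-HCl pH 7.5, 50 mM NaCl, 10 mM MgCl2, 1 mM DTT with 4 nM GCN2, 280 μM ATP and 200 μM (RS)7 peptide; compound (0–8 μM final) preincubated 10 min, reaction 1 h. ADP read by antibody/tracer FP; IC50 and Ki(app) from tight-binding fit.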
(In general: Polarisation of emitted light reports the rotation of a fluorescent probe.)
Take `CC1(C(N)=O)CCN(c2ccnc(-c3cnc4cnc(C(F)(F)F)cn34)n2)C1` (centres unmarked) [IV-581, 3-Methyl-1-(2-(6-(trifluoromethyl)imidazo[1,2-a]pyrazin-3-yl)pyrimidin-4-yl)pyrrolidine-3-carboxamide]: the Ki was 100 to 1000 nM.
`O=C1NCCN1C1CCCN(c2ccnc(-c3cnc4cnc(C(F)(F)F)cn34)n2)C1` (centres unmarked) [IV-584, 1-(1-(2-(6-(Trifluoromethyl)imidazo[1,2-a]pyrazin-3-yl)pyrimidin-4-yl)piperidin-3-yl)imidazolidin-2-one]: the Ki is 100 to 1000 nM.
`CN1CCN(c2ccnc(-c3cnc4cnc(C(F)(F)F)cn34)n2)CC1` [IV-585, 3-(4-(4-Methylpiperazin-1-yl)pyrimidin-2-yl)-6-(trifluoromethyl)imidazo[1,2-a]pyrazine] had a Ki of 100 to 1000 nM.
As to `COCC1CN(c2ccnc(-c3cnc4cnc(C(F)(F)F)cn34)n2)CC(C)O1` (centres unmarked) [IV-586, 2-(Methoxymethyl)-6-methyl-4-(2-(6-(trifluoromethyl)imidazo[1,2-a]pyrazin-3-yl)pyrimidin-4-yl)morpholine], the Ki was 100 to 1000 nM.
`COCC1CN(c2ccnc(-c3cnc4cnc(C(F)(F)F)cn34)n2)CC(C)O1` (centres unmarked) [IV-587, 2-(Methoxymethyl)-6-methyl-4-(2-(6-(trifluoromethyl)imidazo[1,2-a]pyrazin-3-yl)pyrimidin-4-yl)morpholine] registered a Ki of 100 to 1000 nM.
With `COCC1CN(c2ccnc(-c3cnc4cnc(C(F)(F)F)cn34)n2)CCO1` (centres unmarked) [IV-588, 2-(Methoxymethyl)-4-(2-(6-(trifluoromethyl)imidazo[1,2-a]pyrazin-3-yl)pyrimidin-4-yl)morpholine], the Ki fell in the range of 100 to 1000 nM.
`CSCC1CCN(c2ccnc(-c3cnc4cnc(C(F)(F)F)cn34)n2)C1` (centres unmarked) [IV-594, 3-(4-(3-((Methylthio)methyl)pyrrolidin-1-yl)pyrimidin-2-yl)-6-(trifluoromethyl)imidazo[1,2-a]pyrazine] yielded a Ki of 10 to 100 nM.
For the molecule `NC(=O)C1CN(c2ccnc(-c3cnc4cnc(C(F)(F)F)cn34)n2)CCN1` (centres unmarked) [IV-595, 4-(2-(6-(Trifluoromethyl)imidazo[1,2-a]pyrazin-3-yl)pyrimidin-4-yl)piperazine-2-carboxamide], the Ki lay in the range of 100 to 1000 nM.
In turn, `CN1CCN(c2ccnc(-c3cnc4cnc(C(F)(F)F)cn34)n2)CC1C(N)=O` (centres unmarked) [IV-596, 1-Methyl-4-(2-(6-(trifluoromethyl)imidazo[1,2-a]pyrazin-3-yl)pyrimidin-4-yl)piperazine-2-carboxamide] had a Ki of 100 to 1000 nM.
Molecule `NC(=O)C1CCN(c2ccnc(-c3cnc4cnc(C(F)(F)F)cn34)n2)C1` (centres unmarked) [IV-598, 1-(2-(6-(Trifluoromethyl)imidazo[1,2-a]pyrazin-3-yl)pyrimidin-4-yl)pyrrolidine-3-carboxamide] displayed a Ki of 100 to 1000 nM.
In turn, `NC(=O)C1CN(c2ccnc(-c3cnc4cnc(C(F)(F)F)cn34)n2)CCO1` (centres unmarked) [IV-599, 4-(2-(6-(Trifluoromethyl)imidazo[1,2-a]pyrazin-3-yl)pyrimidin-4-yl)morpholine-2-carboxamide] came in with a Ki of 100 to 1000 nM.
In turn, `FC(F)(F)c1cn2c(-c3nccc(N4CCCC(n5ccnn5)C4)n3)cnc2cn1` (centres unmarked) [IV-600, 3-(4-(3-(1H-1,2,3-Triazol-1-yl)piperidin-1-yl)pyrimidin-2-yl)-6-(trifluoromethyl)imidazo[1,2-a]pyrazine] registered a Ki of 100 to 1000 nM.
`O=C1CN(C2CCN(c3ccnc(-c4cnc5cnc(C(F)(F)F)cn45)n3)C2)CCN1` (centres unmarked) [IV-602, 4-(1-(2-(6-(Trifluoromethyl)imidazo[1,2-a]pyrazin-3-yl)pyrimidin-4-yl)pyrrolidin-3-yl)piperazin-2-one] gave a Ki of 100 to 1000 nM.
Molecule `C[S+]([O-])CC1CCN(c2ccnc(-c3cnc4cnc(C(F)(F)F)cn34)n2)C1` (centres unmarked) [IV-603, 3-(4-(3-((Methylsulfinyl)methyl)pyrrolidin-1-yl)pyrimidin-2-yl)-6-(trifluoromethyl)imidazo[1,2-a]pyrazine] returned a Ki of 100 to 1000 nM.
Molecule `CS(=O)(=O)CC1CCN(c2ccnc(-c3cnc4cnc(C(F)(F)F)cn34)n2)C1` (centres unmarked) [IV-604, 3-(4-(3-((methylsulfonyl)methyl)pyrrolidin-1-yl)pyrimidin-2-yl)-6-(trifluoromethyl)imidazo[1,2-a]pyrazine] displayed a Ki of 100 to 1000 nM.
Consider `NC(=O)CC1CCN(c2ccnc(-c3cnc4cnc(C(F)(F)F)cn34)n2)CC1` [IV-605, 2-(1-(2-(6-(Trifluoromethyl)imidazo[1,2-a]pyrazin-3-yl)pyrimidin-4-yl)piperidin-4-yl)acetamide], for which the Ki was in the range of 100 to 1000 nM.
Molecule `FC(F)(F)c1cn2c(-c3nccc(N4CCC(Nc5cn[nH]c5)C4)n3)cnc2cn1` (centres unmarked) [IV-606, N-(1-(2-(6-(Trifluoromethyl)imidazo[1,2-a]pyrazin-3-yl)pyrimidin-4-yl)pyrrolidin-3-yl)-1H-pyrazol-4-amine] came in with a Ki of 100 to 1000 nM.
The figure for `CS(=N)(=O)CC1CCN(c2ccnc(-c3cnc4cnc(C(F)(F)F)cn34)n2)C1` (centres unmarked) [IV-607, Imino(methyl)((1-(2-(6-(trifluoromethyl)imidazo[1,2-a]pyrazin-3-yl)pyrimidin-4-yl)pyrrolidin-3-yl)methyl)-λ^6-sulfanone] is 100 to 1000 nM; for `CC1CN(c2ccnc(-c3cnc4cnc(C(F)(F)F)cn34)n2)C(C)(C)C1` (centres unmarked) [IV-610, 6-(Trifluoromethyl)-3-(4-(2,2,4-trimethylpyrrolidin-1-yl)pyrimidin-2-yl)imidazo[1,2-a]pyrazine] it is 100 to 1000 nM.
`NC(=O)C1CCN(c2ccnc(-c3cnc4cnc(C(F)(F)F)cn34)n2)CC1` [IV-611, 1-(2-(6-(Trifluoromethyl)imidazo[1,2-a]pyrazin-3-yl)pyrimidin-4-yl)piperidine-4-carboxamide]: the Ki was 100 to 1000 nM.
Molecule `NC(=O)N1CCN(c2ccnc(-c3cnc4cnc(C(F)(F)F)cn34)n2)CC1` [IV-612, 4-(2-(6-(Trifluoromethyl)imidazo[1,2-a]pyrazin-3-yl)pyrimidin-4-yl)piperazine-1-carboxamide] displayed a Ki of 100 to 1000 nM.
As to `CC1COC(CO)CN1c1ccnc(-c2cnc3cnc(C(F)(F)F)cn23)n1` (centres unmarked) [IV-613, (5-Methyl-4-(2-(6-(trifluoromethyl)imidazo[1,2-a]pyrazin-3-yl)pyrimidin-4-yl)morpholin-2-yl)methanol], the Ki is 100 to 1000 nM.
Regarding `OCCCC1CCN(c2ccnc(-c3cnc4cnc(C(F)(F)F)cn34)n2)C1` (centres unmarked) [IV-616, 3-(1-(2-(6-(Trifluoromethyl)imidazo[1,2-a]pyrazin-3-yl)pyrimidin-4-yl)pyrrolidin-3-yl)propan-1-ol], the Ki lay in the range of 10 to 100 nM.
As for `OCCN1CCN(c2ccnc(-c3cnc4cnc(C(F)(F)F)cn34)n2)CC1` [IV-617, 2-(4-(2-(6-(Trifluoromethyl)imidazo[1,2-a]pyrazin-3-yl)pyrimidin-4-yl)piperazin-1-yl)ethan-1-ol], the Ki lay in the range of 100 to 1000 nM.
Regarding `O=C(CO)N1CCN(c2ccnc(-c3cnc4cnc(C(F)(F)F)cn34)n2)CC1` [IV-618, 2-Hydroxy-1-(4-(2-(6-(trifluoromethyl)imidazo[1,2-a]pyrazin-3-yl)pyrimidin-4-yl)piperazin-1-yl)ethan-1-one], the Ki was in the range of 100 to 1000 nM.
To `CC(C)(O)CN1CCN(c2ccnc(-c3cnc4cnc(C(F)(F)F)cn34)n2)CC1` [IV-619, 2-Methyl-1-(4-(2-(6-(trifluoromethyl)imidazo[1,2-a]pyrazin-3-yl)pyrimidin-4-yl)piperazin-1-yl)propan-2-ol] belongs 100 to 1000 nM.
